In patent US20040138488A1, “Benzene-1 2-diol mannich bases ligands polymers and method of selective metal ions removal” (priority 2001, published 2004):

Structure (SMILES) | melting point
CN(CCCN(C)Cc1cccc(O)c1O)Cc1cccc(O)c1O [Example 19, 3,3′-[Propane-1,3-diylbis(methyliminomethylene)]di(catechol)] | 130 °C (dec.)
COc1cccc(CN2CCN(Cc3cccc(OC)c3O)CC2)c1O [Example 15, 6,6′-Dimethoxy-2,2′-(piperazine-1,4-diylbismethylene)diphenol] | 197 to 198 °C
CCN(CCN(CC)Cc1cccc(OC)c1O)Cc1cccc(OC)c1O [Example 13, 6,6′-Dimethoxy-2,2′-[ethylenebis(ethyliminomethylene)]diphenol] | 71 to 72 °C

The next lines start with the values.

melting point | Structure (SMILES)
210 °C (dec.) | Oc1cccc(CN2CCN(Cc3cccc(O)c3O)CC2)c1O [Example 20, 3,3′-(Piperazine-1,4-diylbismethylene)di(catechol)]
78 to 79 °C | COc1cccc(CN(C)CCCN(C)Cc2cccc(OC)c2O)c1O [Example 14, 6,6′-Dimethoxy-2,2′-[propane-1,3-diylbis(methyliminomethylene)]diphenol]
115 to 116 °C | COc1cccc(CN(C)CCN(C)Cc2cccc(OC)c2O)c1O [Example 12, 6,6′-Dimethoxy-2,2′-[ethylenebis(methyliminomethylene)]diphenol]
